Columns and labels:
rat PDE10 enzyme = rat PDE10 enzyme (Rattus norvegicus (Rat), UniProt Q9QYJ6); experiment: PDE10 scintillation proximity assay (SPA), inhibition of rat PDE10 enzyme activity; type: biochemical; conditions: geometric mean of 2-4 determinations unless otherwise indicated (b: ≧5 determinations; c: single determination)
In short: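 SPA with fixed recombinant PDE10 (Sf21-expressed, Ni-NTA and Mono Q purified) converting ~20% of 20 nM ³H-cAMP in 50 mM TRIS pH 7.5, 1.3 mM MgCl2, 0.01% Brij, across an inhibitor range.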

[1] = biological target: human recombinant PDE10 enzyme (PDE10A) (Homo sapiens, UniProt Q9Y233); experiment: PDE10 scintillation proximity assay (SPA), inhibition of human recombinant PDE10 enzyme activity; type: biochemical; conditions: geometric mean of 2-4 determinations unless otherwise indicated (b: ≧5 determinations; c: single determination)
In short: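 His6-tagged human PDE10A (aa 21–797) was expressed in insect cells and purified by Ni-NTA and size exclusion. The enzyme, at a level converting about 20% of 20 nM ^3H-cAMP, was incubated 30 min at 25°C in 50 mM Tris pH 7.5, 1.3 mM MgCl2, 0.01% Brij with inhibitors. The reaction was stopped with yttrium silicate SPA beads, read by scintillation, and IC50 determined.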

rat PDE10 enzyme, sequence (Q9QYJ6 24-794): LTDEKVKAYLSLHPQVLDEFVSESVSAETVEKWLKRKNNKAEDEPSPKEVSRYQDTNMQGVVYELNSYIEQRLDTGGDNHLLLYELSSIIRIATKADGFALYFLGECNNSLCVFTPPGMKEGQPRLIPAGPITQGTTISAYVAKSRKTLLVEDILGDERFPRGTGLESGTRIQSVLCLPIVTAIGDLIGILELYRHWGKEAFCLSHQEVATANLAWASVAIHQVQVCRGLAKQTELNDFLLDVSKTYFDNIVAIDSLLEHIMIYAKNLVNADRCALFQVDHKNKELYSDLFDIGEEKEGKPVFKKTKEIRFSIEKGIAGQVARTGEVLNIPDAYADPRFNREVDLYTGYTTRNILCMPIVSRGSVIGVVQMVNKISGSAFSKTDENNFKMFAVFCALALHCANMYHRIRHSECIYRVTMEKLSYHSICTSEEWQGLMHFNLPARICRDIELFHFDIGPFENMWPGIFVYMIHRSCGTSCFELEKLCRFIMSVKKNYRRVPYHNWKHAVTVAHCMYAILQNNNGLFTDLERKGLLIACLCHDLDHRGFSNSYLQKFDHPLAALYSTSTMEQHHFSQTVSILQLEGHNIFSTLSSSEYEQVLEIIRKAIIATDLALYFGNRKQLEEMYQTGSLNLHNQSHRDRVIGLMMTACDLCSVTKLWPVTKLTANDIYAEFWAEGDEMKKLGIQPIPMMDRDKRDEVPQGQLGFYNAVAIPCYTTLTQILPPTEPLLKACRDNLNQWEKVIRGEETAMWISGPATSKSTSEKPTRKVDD

| SMILES | IC50 (rat PDE10 enzyme) | IC50 [1] |
| --- | --- | --- |
| CCn1ncc2c1CN(c1ncnn3c(C)nc([C@@H]4CCOC4)c13)CC2 [Example 165, 4-(1-ethyl-1,4,5,7-tetrahydro-6H-pyrazolo[3,4-c]pyridin-6-yl)-7-methyl-5-[(3S)-tetrahydrofuran-3-yl]imidazo[5,1-f][1,2,4]triazine] | 766 pM | 1020 pM |
| Cc1nc([C@@H]2CCOC2)c2c(N3Cc4c(cnn4C)C(C)C3)ncnn12 (stereo partly drawn) [Example 167, 4-(1,4-dimethyl-1,4,5,7-tetrahydro-6H-pyrazolo[3,4-c]pyridin-6-yl)-7-methyl-5-[(3S)-tetrahydrofuran-3-yl]imidazo[5,1-f][1,2,4]triazine] | 4470 pM | 4110 pM |
| Cc1nc(-c2ccccc2F)c2c(N3Cc4c(cnn4C)C(C)C3)ncnn12 (stereo not shown) [Example 168] | 6100 pM | 3960 pM |
| Cc1nc([C@@H]2CCOC2)c2c(N3CCc4cnn(CC(F)(F)F)c4C3)ncnn12 [Example 170, 7-methyl-5-[(3S)-tetrahydrofuran-3-yl]-4-[1-(2,2,2-trifluoroethyl)-1,4,5,7-tetrahydro-6H-pyrazolo[3,4-c]pyridin-6-yl]imidazo[5,1-f][1,2,4]triazine] | 1940 pM | 2550 pM |
| Cc1nc(-c2ccccc2F)c2c(N3CCc4cnn(CC5CCC5)c4C3)ncnn12 [Example 175, 4-[1-(cyclobutylmethyl)-1,4,5,7-tetrahydro-6H-pyrazolo[3,4-c]pyridin-6-yl]-5-(2-fluorophenyl)-7-methylimidazo[5,1-f][1,2,4]triazine] | 878 pM | 1940 pM |

The next molecules have a lower IC50 (rat PDE10 enzyme) than those just listed; values first:

| IC50 (rat PDE10 enzyme) | IC50 [1] | SMILES |
| --- | --- | --- |
| 435 pM | 801 pM | CCn1ncc2c1CN(c1ncnn3c(C)nc(-c4ccccc4F)c13)CC2 [Example 166, 4-(1-ethyl-1,4,5,7-tetrahydro-6H-pyrazolo[3,4-c]pyridin-6-yl)-5-(2-fluorophenyl)-7-methylimidazo[5,1-f][1,2,4]triazine] |
| 367 pM | 755 pM | Cc1nc([C@@H]2CCOC2)c2c(N3CCc4cnn(CC(C)C)c4C3)ncnn12 [Example 169, 7-methyl-4-[1-(2-methylpropyl)-1,4,5,7-tetrahydro-6H-pyrazolo[3,4-c]pyridin-6-yl]-5-[(3S)-tetrahydrofuran-3-yl]imidazo[5,1-f][1,2,4]triazine] |
| 359 pM | 345 pM | Cc1nc([C@@H]2CCOC2)c2c(N3CCc4cnn(CC5CCC5)c4C3)ncnn12 [Example 174, 4-[1-(cyclobutylmethyl)-1,4,5,7-tetrahydro-6H-pyrazolo[3,4-c]pyridin-6-yl]-7-methyl-5-[(3S)-tetrahydrofuran-3-yl]imidazo[5,1-f][1,2,4]triazine] |

Source: US8933224B2, “Triazine derivatives” (Pfizer Inc., priority 2013, dated 2015)
